Results on 13 molecules are retold here after ChEMBL document CHEMBL1909570, “Synthesis and antibacterial activity of N4-mono alkyl derivatives of novel glycopeptide LYV07ww01” (2011).

Structures are written as SMILES. Converted amounts (≈) assume the structure as drawn.

Assay type in all cases: functional
In experiment [1] the test system is Staphylococcus epidermidis. Kind of experiment: Antibacterial activity against Staphylococcus epidermidis 26069 by CLSI agar microdilution method.
In the next experiment the test system is Streptococcus. Kind of experiment: Antibacterial activity against Streptococcus gamma 32206 by CLSI agar microdilution method.
The next experiment deals with Streptococcus pneumoniae. The experiment in a line: Antibacterial activity against Streptococcus pneumoniae 31002 by CLSI agar microdilution method.
A further experiment relates to Enterococcus faecium. Kind of experiment: Antibacterial activity against Enterococcus faecium 32220 by CLSI agar microdilution method.
In a further experiment the test system is Staphylococcus aureus. The experiment in a line: Antibacterial activity against Staphylococcus aureus 26003 by CLSI agar microdilution method.
For the next experiment, the system named is Staphylococcus. The experiment in a line: Antibacterial activity against Staphylococcus albus 26101 by CLSI agar microdilution method.

In general, MIC refers to the lowest concentration found to suppress growth. Consider `CN[C@H](CC(C)C)C(=O)N[C@H]1C(=O)N[C@@H](CC(N)=O)C(=O)N[C@H]2C(=O)N[C@H]3C(=O)N[C@H](C(=O)N[C@@H](C(=O)O)c4cc(O)cc(O)c4-c4cc3ccc4O)[C@H](O[C@H]3C[C@](C)(N)[C@H](O)[C@H](C)O3)c3ccc(c(Cl)c3)Oc3cc2cc(c3O[C@@H]2O[C@H](CO)[C@@H](O)[C@H](O)[C@H]2O[C@H]2C[C@](C)(NCc3ccc(Sc4ccccc4)cc3)[C@H](O)[C@H](C)O2)Oc2ccc(cc2Cl)[C@H]1O`, for which the MIC in experiment [1] is over 25 µg/mL; in the experiment with Streptococcus, 3.13 µg/mL (≈ 1.75 µM); with Streptococcus pneumoniae, 3.13 µg/mL (≈ 1.75 µM); against Enterococcus faecium, 3.13 µg/mL (≈ 1.75 µM); in the experiment with Staphylococcus aureus, 3.13 µg/mL (≈ 1.75 µM); against Staphylococcus, 3.13 µg/mL (≈ 1.75 µM).

With `CCCCCCCCOc1ccc(CN[C@@]2(C)C[C@H](O[C@H]3[C@H](Oc4c5cc6cc4Oc4ccc(cc4Cl)[C@@H](O[C@H]4C[C@](C)(N)[C@H](O)[C@H](C)O4)[C@@H]4NC(=O)[C@H](NC(=O)[C@@H]6NC(=O)[C@H](CC(N)=O)NC(=O)[C@H](NC(=O)[C@@H](CC(C)C)NC)[C@H](O)c6ccc(c(Cl)c6)O5)c5ccc(O)c(c5)-c5c(O)cc(O)cc5[C@H](C(=O)O)NC4=O)O[C@H](CO)[C@@H](O)[C@@H]3O)O[C@@H](C)[C@H]2O)cc1`, the minimum inhibitory concentration (MIC) in experiment [1] is over 25 µg/mL; with Streptococcus it was 6.25 µg/mL (≈ 3.45 µM); in the experiment on Streptococcus pneumoniae, 6.25 µg/mL (≈ 3.45 µM); against Enterococcus faecium, 12.5 µg/mL (≈ 6.9 µM); against Staphylococcus aureus, 12.5 µg/mL (≈ 6.9 µM); in the experiment with Staphylococcus it was 12.5 µg/mL (≈ 6.9 µM).

For `CCCCCN[C@@]1(C)C[C@H](O[C@H]2[C@H](Oc3c4cc5cc3Oc3ccc(cc3Cl)[C@@H](O[C@H]3C[C@](C)(N)[C@H](O)[C@H](C)O3)[C@@H]3NC(=O)[C@H](NC(=O)[C@@H]5NC(=O)[C@H](CC(N)=O)NC(=O)[C@H](NC(=O)[C@@H](CC(C)C)NC)[C@H](O)c5ccc(c(Cl)c5)O4)c4ccc(O)c(c4)-c4c(O)cc(O)cc4[C@H](C(=O)O)NC3=O)O[C@H](CO)[C@@H](O)[C@@H]2O)O[C@@H](C)[C@H]1O`, the MIC was over 25 µg/mL in experiment [1]; 0.78 µg/mL (≈ 0.469 µM) against Streptococcus; 0.39 µg/mL (≈ 0.235 µM) in the experiment on Streptococcus pneumoniae; over 25 µg/mL against Enterococcus faecium; 1.56 µg/mL (≈ 0.938 µM) against Staphylococcus aureus; 3.13 µg/mL (≈ 1.88 µM) with Staphylococcus.

Turning to `CN[C@H](CC(C)C)C(=O)N[C@H]1C(=O)N[C@@H](CC(N)=O)C(=O)N[C@H]2C(=O)N[C@H]3C(=O)N[C@H](C(=O)N[C@@H](C(=O)O)c4cc(O)cc(O)c4-c4cc3ccc4O)[C@H](O[C@H]3C[C@](C)(N)[C@H](O)[C@H](C)O3)c3ccc(c(Cl)c3)Oc3cc2cc(c3O[C@@H]2O[C@H](CO)[C@@H](O)[C@H](O)[C@H]2O[C@H]2C[C@](C)(NCc3cccc(Cl)c3)[C@H](O)[C@H](C)O2)Oc2ccc(cc2Cl)[C@H]1O`, the MIC in experiment [1] was over 25 µg/mL; against Streptococcus, 0.78 µg/mL (≈ 0.454 µM); with Streptococcus pneumoniae it was 0.78 µg/mL (≈ 0.454 µM); in the experiment with Enterococcus faecium it was 1.56 µg/mL (≈ 0.909 µM); in the experiment with Staphylococcus aureus it was 1.56 µg/mL (≈ 0.909 µM); in the experiment on Staphylococcus, 1.56 µg/mL (≈ 0.909 µM).

With `CN[C@H](CC(C)C)C(=O)N[C@H]1C(=O)N[C@@H](CC(N)=O)C(=O)N[C@H]2C(=O)N[C@H]3C(=O)N[C@H](C(=O)N[C@@H](C(=O)O)c4cc(O)cc(O)c4-c4cc3ccc4O)[C@H](O[C@H]3C[C@](C)(N)[C@H](O)[C@H](C)O3)c3ccc(c(Cl)c3)Oc3cc2cc(c3O[C@@H]2O[C@H](CO)[C@@H](O)[C@H](O)[C@H]2O[C@H]2C[C@](C)(NCc3ccc4ccccc4c3)[C@H](O)[C@H](C)O2)Oc2ccc(cc2Cl)[C@H]1O`, the minimum inhibitory concentration (MIC) in experiment [1] is over 25 µg/mL; in the experiment on Streptococcus, 0.78 µg/mL (≈ 0.45 µM); in the experiment on Streptococcus pneumoniae, 1.56 µg/mL (≈ 0.9 µM); against Enterococcus faecium it was 3.13 µg/mL (≈ 1.81 µM); with Staphylococcus aureus it was 1.56 µg/mL (≈ 0.9 µM); in the experiment on Staphylococcus, 3.13 µg/mL (≈ 1.81 µM).

In the case of `CN[C@H](CC(C)C)C(=O)N[C@H]1C(=O)N[C@@H](CC(N)=O)C(=O)N[C@H]2C(=O)N[C@H]3C(=O)N[C@H](C(=O)N[C@@H](C(=O)O)c4cc(O)cc(O)c4-c4cc3ccc4O)[C@H](O[C@H]3C[C@](C)(N)[C@H](O)[C@H](C)O3)c3ccc(c(Cl)c3)Oc3cc2cc(c3O[C@@H]2O[C@H](CO)[C@@H](O)[C@H](O)[C@H]2O[C@H]2C[C@](C)(NCc3ccc(-c4ccc(Cl)cc4)cc3)[C@H](O)[C@H](C)O2)Oc2ccc(cc2Cl)[C@H]1O`, the MIC came to 6.25 µg/mL (≈ 3.49 µM) in experiment [1]; 3.13 µg/mL (≈ 1.75 µM) in the experiment with Streptococcus; 3.13 µg/mL (≈ 1.75 µM) against Streptococcus pneumoniae; 6.25 µg/mL (≈ 3.49 µM) in the experiment with Enterococcus faecium; 6.25 µg/mL (≈ 3.49 µM) against Staphylococcus aureus; 3.13 µg/mL (≈ 1.75 µM) against Staphylococcus.

For the molecule `CN[C@H](CC(C)C)C(=O)N[C@H]1C(=O)N[C@@H](CC(N)=O)C(=O)N[C@H]2C(=O)N[C@H]3C(=O)N[C@H](C(=O)N[C@@H](C(=O)O)c4cc(O)cc(O)c4-c4cc3ccc4O)[C@H](O[C@H]3C[C@](C)(N)[C@H](O)[C@H](C)O3)c3ccc(c(Cl)c3)Oc3cc2cc(c3O[C@@H]2O[C@H](CO)[C@@H](O)[C@H](O)[C@H]2O[C@H]2C[C@](C)(NC/C=C/c3ccccc3)[C@H](O)[C@H](C)O2)Oc2ccc(cc2Cl)[C@H]1O`, the MIC in experiment [1] was over 25 µg/mL; with Streptococcus, 1.56 µg/mL (≈ 0.913 µM); against Streptococcus pneumoniae it was 1.56 µg/mL (≈ 0.913 µM); in the experiment on Enterococcus faecium it was 3.13 µg/mL (≈ 1.83 µM); against Staphylococcus aureus it was 3.13 µg/mL (≈ 1.83 µM); with Staphylococcus, 3.13 µg/mL (≈ 1.83 µM).

Regarding `CCCCCCCCN[C@@]1(C)C[C@H](O[C@H]2[C@H](Oc3c4cc5cc3Oc3ccc(cc3Cl)[C@@H](O[C@H]3C[C@](C)(N)[C@H](O)[C@H](C)O3)[C@@H]3NC(=O)[C@H](NC(=O)[C@@H]5NC(=O)[C@H](CC(N)=O)NC(=O)[C@H](NC(=O)[C@@H](CC(C)C)NC)[C@H](O)c5ccc(c(Cl)c5)O4)c4ccc(O)c(c4)-c4c(O)cc(O)cc4[C@H](C(=O)O)NC3=O)O[C@H](CO)[C@@H](O)[C@@H]2O)O[C@@H](C)[C@H]1O`, the MIC in experiment [1] is over 25 µg/mL; with Streptococcus it was 1.56 µg/mL (≈ 0.915 µM); in the experiment on Streptococcus pneumoniae, 0.39 µg/mL (≈ 0.229 µM); in the experiment on Enterococcus faecium, 1.56 µg/mL (≈ 0.915 µM); against Staphylococcus aureus it was 3.13 µg/mL (≈ 1.84 µM); against Staphylococcus, 3.13 µg/mL (≈ 1.84 µM).

With `CN[C@H](CC(C)C)C(=O)N[C@H]1C(=O)N[C@@H](CC(N)=O)C(=O)N[C@H]2C(=O)N[C@H]3C(=O)N[C@H](C(=O)N[C@@H](C(=O)O)c4cc(O)cc(O)c4-c4cc3ccc4O)[C@H](O[C@H]3C[C@](C)(N)[C@H](O)[C@H](C)O3)c3ccc(c(Cl)c3)Oc3cc2cc(c3O[C@@H]2O[C@H](CO)[C@@H](O)[C@H](O)[C@H]2O[C@H]2C[C@](C)(NCc3cccc4ccccc34)[C@H](O)[C@H](C)O2)Oc2ccc(cc2Cl)[C@H]1O`, the minimum inhibitory concentration (MIC) in experiment [1] was over 25 µg/mL; in the experiment with Streptococcus, 6.25 µg/mL (≈ 3.61 µM); against Streptococcus pneumoniae, 0.78 µg/mL (≈ 0.45 µM); against Enterococcus faecium, 1.56 µg/mL (≈ 0.9 µM); in the experiment on Staphylococcus aureus, 1.56 µg/mL (≈ 0.9 µM); in the experiment with Staphylococcus, 1.56 µg/mL (≈ 0.9 µM).

With `CCCCCCOc1ccc(CN[C@@]2(C)C[C@H](O[C@H]3[C@H](Oc4c5cc6cc4Oc4ccc(cc4Cl)[C@@H](O[C@H]4C[C@](C)(N)[C@H](O)[C@H](C)O4)[C@@H]4NC(=O)[C@H](NC(=O)[C@@H]6NC(=O)[C@H](CC(N)=O)NC(=O)[C@H](NC(=O)[C@@H](CC(C)C)NC)[C@H](O)c6ccc(c(Cl)c6)O5)c5ccc(O)c(c5)-c5c(O)cc(O)cc5[C@H](C(=O)O)NC4=O)O[C@H](CO)[C@@H](O)[C@@H]3O)O[C@@H](C)[C@H]2O)cc1`, the minimal inhibitory concentration (MIC) in experiment [1] is over 25 µg/mL; with Streptococcus it was 3.13 µg/mL (≈ 1.76 µM); with Streptococcus pneumoniae, 3.13 µg/mL (≈ 1.76 µM); against Enterococcus faecium, 6.25 µg/mL (≈ 3.51 µM); in the experiment on Staphylococcus aureus, 6.25 µg/mL (≈ 3.51 µM); against Staphylococcus it was 6.25 µg/mL (≈ 3.51 µM).

For the molecule `CN[C@H](CC(C)C)C(=O)N[C@H]1C(=O)N[C@@H](CC(N)=O)C(=O)N[C@H]2C(=O)N[C@H]3C(=O)N[C@H](C(=O)N[C@@H](C(=O)O)c4cc(O)cc(O)c4-c4cc3ccc4O)[C@H](O[C@H]3C[C@](C)(N)[C@H](O)[C@H](C)O3)c3ccc(c(Cl)c3)Oc3cc2cc(c3O[C@@H]2O[C@H](CO)[C@@H](O)[C@H](O)[C@H]2O[C@H]2C[C@](C)(NCc3ccc(Cl)c(Cl)c3)[C@H](O)[C@H](C)O2)Oc2ccc(cc2Cl)[C@H]1O`, the MIC in experiment [1] was over 25 µg/mL; in the experiment with Streptococcus it was 0.78 µg/mL (≈ 0.445 µM); against Streptococcus pneumoniae it was 0.78 µg/mL (≈ 0.445 µM); in the experiment with Enterococcus faecium, 6.25 µg/mL (≈ 3.57 µM); against Staphylococcus aureus it was 3.13 µg/mL (≈ 1.79 µM); in the experiment on Staphylococcus, 3.13 µg/mL (≈ 1.79 µM).

With `CN[C@H](CC(C)C)C(=O)N[C@H]1C(=O)N[C@@H](CC(N)=O)C(=O)N[C@H]2C(=O)N[C@H]3C(=O)N[C@H](C(=O)N[C@@H](C(=O)O)c4cc(O)cc(O)c4-c4cc3ccc4O)[C@H](O[C@H]3C[C@](C)(N)[C@H](O)[C@H](C)O3)c3ccc(c(Cl)c3)Oc3cc2cc(c3O[C@@H]2O[C@H](CO)[C@@H](O)[C@H](O)[C@H]2O[C@H]2C[C@](C)(NCc3ccc(Cl)cc3)[C@H](O)[C@H](C)O2)Oc2ccc(cc2Cl)[C@H]1O`, the MIC in experiment [1] turned out to be 12.5 µg/mL (≈ 7.28 µM); in the experiment with Streptococcus it was 1.56 µg/mL (≈ 0.909 µM); against Streptococcus pneumoniae it was 1.56 µg/mL (≈ 0.909 µM); against Enterococcus faecium, 3.13 µg/mL (≈ 1.82 µM); in the experiment on Staphylococcus aureus, 3.13 µg/mL (≈ 1.82 µM); with Staphylococcus, 3.13 µg/mL (≈ 1.82 µM).

On to `CCCCCCCCCN[C@@]1(C)C[C@H](O[C@H]2[C@H](Oc3c4cc5cc3Oc3ccc(cc3Cl)[C@@H](O[C@H]3C[C@](C)(N)[C@H](O)[C@H](C)O3)[C@@H]3NC(=O)[C@H](NC(=O)[C@@H]5NC(=O)[C@H](CC(N)=O)NC(=O)[C@H](NC(=O)[C@@H](CC(C)C)NC)[C@H](O)c5ccc(c(Cl)c5)O4)c4ccc(O)c(c4)-c4c(O)cc(O)cc4[C@H](C(=O)O)NC3=O)O[C@H](CO)[C@@H](O)[C@@H]2O)O[C@@H](C)[C@H]1O`, for which the MIC is over 25 µg/mL in experiment [1]; 1.56 µg/mL (≈ 0.908 µM) against Streptococcus; 1.56 µg/mL (≈ 0.908 µM) against Streptococcus pneumoniae; over 25 µg/mL in the experiment on Enterococcus faecium; 3.13 µg/mL (≈ 1.82 µM) with Staphylococcus aureus; 6.25 µg/mL (≈ 3.64 µM) in the experiment on Staphylococcus.
